Experimental data taken from PMC8100298, “Histone deacetylase inhibitor resminostat in combination with sorafenib counteracts platelet-mediated pro-tumoral effects in hepatocellular carcinoma” (Scientific Reports, 2021).
Where two headings read alike, the source gives them in different places.

Tests used:
Assay in all cases: Efficacy screening assay
Assay type in all cases: cell-based
[1] = test system: SF295; conditions: SF295, brain
Experimental: (§1) labelled fluorogenic peptide substrates: fluorogenic peptide from p53 residues 379-382 (RHKK(Ac)AMC) for HDAC1, 2, 3, 6, 10, 11; fluorogenic HDAC Class IIa Substrate (Trifluoro acetyl Lysine, Ac-LGK(TFA)-AMC) for HDAC 4, 5, 7, 9; and fluorogenic peptide from p53 residues 379-382 (RHK(Ac)K(Ac)AMC) for HDAC8. 1 mg/mL BSA and DMSO was added to the assay buffer (50 mM Tris-HCl, pH 8.0; 137 mM NaCl; 2.7 mM KCl; 1 mM MgCl2) prior to use. In a two-step reaction, the substrate with the acetylated lysine side chain was incubated for with a sample containing HDAC activity to p roduce the deacetylated products: 1 h at 30°C for HDAC1, 2, 3 and 6; 30 min at RT for HDAC4, 5, 7 and 9; 2 h at 30°C for HDAC8, 10 and 11. In a second step, the deacetylated products were digested by the addition of developer for 1 h at 30°C to produce the fluorescent signal proportional to the amount of deacetylated substrates and the fluorescence was measured using an Envision plate reader at 355 nm (excitation) and 460 nm (emission). A kinetic measurement was performed for ~1 h with 5 min intervals and d ata from the final time point were analysed. IC50 values and curve fits were obtained using GraphPad Softwar e.
(§2) The experiment was performed by Oncolead GmbH & Co. KG (Karlsfeld , Germany), based on a standardized screening procedure . Cell lines were purchased directly from the ATCC, NCI and DSMZ cell line c ollections. Cells used for the study had undergone less than 20 passages. To ensure the absence of potential contamination and wrong assignment, all cell lines were tested using a whole genome assay (Agilent, USA). All cell lines were grown as recommended by the suppliers and with addition of 100 U/mL penicillin G and 100 µg/mL; streptomycin. Cell growth and treatments were performed in Nunclon D 96 -well plates (NUNC, Germany). The optimal seeding density for each cell line was determined to ensure exponential growth for the duration of the experiment. All cells growing without anti-cancer agents were sub-conﬂuent by the end of the treatment, as determined by visual inspection.
(§3) After an initial 24 h pre-growth period, the compounds were added. The vehicle concentration […]
(§4) was 0.1% DMSO. After incubation at 37°C for 72 h, the culture medium was aspirated, and the cells were precipitated by the addition of 10% trichloroacetic acid (Sigma-Aldrich, Missouri, US). After overnight incubation at 4°C, the plates were washed three times with deionized water. The precipitates were then stained with SRB (0.4% wt/v sulforhodamine B solution in 1% acetic acid, Sigma-Aldrich, Missouri, US). Afterwards, the plates were washed six times with 1% acetic acid to remove unbound stain. After drying the plates at room temperature, the bound SRB was solubilized with 10 mM Tris base and the optical density was measured at 520 nm using a Victor2 plate reader (Perkin Elmer, Germany). Blank OD values were subtracted from mean OD values for each concentration. The nonlinear curve ﬁtting and EC50 calculations were per formed using XLﬁt and algorithm “205” (ID Business […]
(§5) For cell-based and other in vitro assays, data are presented as data mean ± SD of at least […]
(§6) For the orthotopic mouse model, data are presented as mean + SEM. For statistical analysis, one-way ANOVA and multiple comparison (Dunnett) was performed for compound treatments compared to vehicle control. The adjusted p-values with 95% confidence interval were reported as significant. For comparison of EC50 values in Figure 1F, one-way ANOVA with multiple comparison testing (Tukey) was performed. Multiplicity adjusted p -values for the EC50 with sorafenib versus resminostat for each cell line and comparison between cell lines for sorafenib are presented (95% confidence interval for significance testing). For comparison of EC50 data in Figure 2B, one-way ANOVA with multiple comparison testing (Tukey) was performed. Multiplicity adjusted p-values with 95% confidence interval was applied. For the […]

[2] = test system: SKMEL28; conditions: Homo sapiens, SK-MEL-28, SKMEL28, skin, 72 h
Experimental: as §1, §2, §3, §4, §5, §6

[3] = test system: U87MG; conditions: 72 h, brain
Experimental: as §1, §2, §3, §4, §5, §6

[4] = test system: DU145; conditions: DU145, prostate
Experimental: as §1, §2, §3, §4, §5, §6

[5] = test system: COLO205; conditions: COLO205, colon
Experimental: as §1, §2, §3, §4, §5, §6

[6] = test system: HEK293; conditions: HEK293, kidney
Experimental: as §1, §2, §3, §4, §5, §6

[7] = test system: SW620; conditions: SW620, colon
Experimental: as §1, §2, §3, §4, §5, §6

[8] = test system: DLD1; conditions: Homo sapiens, DLD-1, DLD1, colon, 72 h
Experimental: as §1, §2, §3, §4, §5, §6

[9] = test system: HepG2; conditions: Homo sapiens, HepG2, 72 h, HEPG2, liver
Experimental: as §1, §2, §3, §4, §5, §6

[10] = test system: TE671; conditions: TE671, muscle
Experimental: as §1, §2, §3, §4, §5, §6

[11] = test system: 5637 (HTB-9)
Experimental: as §1, §2, §3, §4, §5, §6

[12] = test system: SKOV3; conditions: SKOV3, ovary
Experimental: as §1, §2, §3, §4, §5, §6

[13] = log of EC50, negative, read-out: log(EC50) (converted)

CN(C)Cc1ccc(S(=O)(=O)n2ccc(/C=C/C(=O)NO)c2)cc1 [resminostat, Resminostat]
EC50 ([1]; Homo sapiens, SF-295, 72 h, log of EC50, negative, read-out: log(EC50) (converted)): 2.51 µM
EC50 ([1]; Homo sapiens, SF-295, 72 h, read-out: EC50): 2.53 µM
EC50 ([1]; 72 h, read-out: EC50): 2.53 µM
EC50 [2, 13]: 3.31 µM
EC50 ([2]; read-out: EC50): 3.34 µM
EC50 ([3]; Homo sapiens, U-87 MG, log of EC50, negative, read-out: log(EC50) (converted)): 5.5 µM
EC50 ([3]; Homo sapiens, U-87 MG, read-out: EC50): 5.55 µM
EC50 ([3]; read-out: EC50): 5.55 µM
EC50 ([4]; 72 h, read-out: EC50): 1.38 µM
EC50 ([4]; Homo sapiens, DU-145, 72 h, log of EC50, negative, read-out: log(EC50) (converted)): 1.38 µM
EC50 ([4]; Homo sapiens, DU-145, 72 h, read-out: EC50): 1.38 µM
EC50 ([5]; 72 h, read-out: EC50): 2.54 µM
EC50 ([5]; Homo sapiens, COLO 205, 72 h, log of EC50, negative, read-out: log(EC50) (converted)): 2.57 µM
EC50 ([5]; Homo sapiens, COLO 205, 72 h, read-out: EC50): 2.54 µM
EC50 ([6]; 72 h, read-out: EC50): 4.76 µM
EC50 ([6]; Homo sapiens, HEK293, 72 h, log of EC50, negative, read-out: log(EC50) (converted)): 4.79 µM
EC50 ([6]; Homo sapiens, HEK293, 72 h, read-out: EC50): 4.76 µM
EC50 ([7]; Homo sapiens, SW-620, 72 h, log of EC50, negative, read-out: log(EC50) (converted)): 1.29 µM
EC50 ([7]; Homo sapiens, SW-620, 72 h, read-out: EC50): 1.27 µM
EC50 ([7]; 72 h, read-out: EC50): 1.27 µM
EC50 [8, 13]: 1.95 µM
EC50 ([8]; read-out: EC50): 1.95 µM
EC50 [9, 13]: 0.501 µM
EC50 ([9]; read-out: EC50): 0.504 µM
EC50 ([10]; Homo sapiens, TE-671, 72 h, log of EC50, negative, read-out: log(EC50) (converted)): 1.35 µM
EC50 ([10]; Homo sapiens, TE-671, 72 h, read-out: EC50): 1.34 µM
EC50 ([10]; 72 h, read-out: EC50): 1.34 µM
EC50 ([11]; 72 h, bladder, log of EC50, negative, read-out: log(EC50) (converted)): 1.12 µM
EC50 ([11]; 72 h, bladder, read-out: EC50): 1.13 µM
EC50 ([11]; bladder, 72 h, read-out: EC50): 1.13 µM
EC50 ([12]; Homo sapiens, SK-OV-3, 72 h, log of EC50, negative, read-out: log(EC50) (converted)): 3.72 µM
EC50 ([12]; Homo sapiens, SK-OV-3, 72 h, read-out: EC50): 3.69 µM
EC50 ([12]; 72 h, read-out: EC50): 3.69 µM
